The results in this text go back to patent US10285983B2, “3-(1H-pyrrolo[2,3-B]pyridin-2-yl)-1H-pyrazolo[3,4-B] pyridines and therapeutic uses thereof” (Samumed, LLC, priority 2015, dated 2019).

Molecules are shown by their SMILES. A value given as a limit tells only on which side of the number the result lay.

As usually defined, the inhibition is the percentage by which the read-out fell short of the control. For orientation: EC50 means the concentration that produces a half-maximal response. Low readings indicate an effect from little substance, high ones a need for much substance.

The subject of assay [1] is Wnt activity (Sp5-Luc reporter, SW480 colon carcinoma cells). As to the kind of experiment: Wnt activity screening assay, Sp5-Luc reporter gene in SW480 cells. Type of assay: cell-based. Particulars: Homo sapiens; for inhibition at 10 µM: given for EC50 >10 μM, read-out: percent inhibition at 10 μM; for EC50: overnight incubation. The source says:
The screening assay for Wnt activity is described as follows. Reporter cell lines can be generated by stably transducing cancer cell lines (e.g., colon cancer) or primary cells (e.g., IEC-6 intestinal cells) with a lentiviral construct that includes a Wnt-responsive promoter driving expression of the firefly luciferase gene.
SW480 colon carcinoma cells were transduced with a lentiviral vector expressing luciferase with a human Sp5 promoter consisting of a sequence of eight TCF/LEF binding sites. SW480 cells stably expressing the Sp5-Luc reporter gene and a hygromycin resistance gene were selected by treatment with 150 μg/mL of hygromycin for 7 days. These stably transduced SW480 cells were expanded in cell culture and used for all further screening activities. Each compound was dissolved in DMSO as a 10 mM stock and used to prepare compound source plates. Serial dilution (1:3, 10-point dose-response curves starting from 10 μM) and compound transfer was performed using the ECHO 550 (Labcyte, Sunnyvale, Calif.) into 384-well white solid bottom assay plates (Greiner Bio-One) with appropriate DMSO backfill for a final DMSO concentration of 0.1%. For Sp5-Luc reporter gene assays, the cells were plated at 4,000 cells/well in 384-well plates with medium containing 1% fetal bovine serum and incubated overnight at 37° C. and 5% CO2. Following incubation, 20 μl of BrightGlo luminescence reagent (Promega) was added to each well of the 384-well assay plates. The plates were placed on an orbital shaker for 2 min and then luminescence was quantified using the Envision (Perkin Elmer) plate reader. Readings were normalized to DMSO only treated cells, and normalized activities were utilized for EC50 calculations using the dose-response log (inhibitor) vs. response—variable slope (four parameters) nonlinear regression feature available in GraphPad Prism 5.0 (or Dotmatics). For EC50 of >10 μM, the percent inhibition at 10 μM is provided.
In general terms: A reporter such as luciferase makes a cellular process visible.

A further assay deals with SW480 colon cancer cells. As to the kind of experiment: Cell viability assay (CellTiter-Blue). Type of assay: cell-based. The note with it: Homo sapiens, 96 h, four days; for inhibition at 10 µM: given for EC50 >10 μM, read-out: percent inhibition at 10 μM. As for the experimental part:
Representative compounds were screened using the following assay procedure to assess the effect on cell viability as described below.
Each compound was dissolved in DMSO as a 10 mM stock and used to prepare compound source plates. Serial dilution (1:3, 8-point dose-response curves from 10 μM to 0.0045 μM) and compound transfer was performed using the ECHO 550 (Labcyte, Sunnyvale, Calif.) into 96-well clear bottom, black-walled plates (Corning-Costar).
Approximately 2×10^3 SW480 colon cancer cells were seeded into each well and allowed to incubate in the presence or absence of compound for four days at 37° C./5% CO2. Eight replicates of DMSO-treated cells served as controls and cells treated with compound were performed in duplicate.
After incubation, 20 μL of CellTiter-Blue (Promega) was added to each well allowed to incubate for approximately 3 hours. This reagent was a buffered solution which contains resazurin, metabolically active cells were able to reduce rezarurin (blue) into resorufin (pink) which was highly fluorescent. This measured fluorescence was used as a readout for cell viability.
After incubation, the plates were read at Ex 560 nm Em 590 nm (Cytation 3, BioTek). Dose-response curves were generated and EC50 concentration values were calculated using non-linear regression curve fit in the GraphPad Prism (San Diego, Calif.) or Dotmatics' Studies Software (Bishops Stortford, UK). For EC50 of >10 μM, the percent inhibition at 10 μM is provided.
A general note: Resazurin is reduced to fluorescent resorufin, in cell work by metabolically active cells.

In the case of `CC(C)Nc1cncc(-c2cnc3[nH]nc(-c4cc5c(-c6cccnc6)ccnc5[nH]4)c3c2)c1` [Compound 96, N-Isopropyl-5-(3-(4-(pyridin-3-yl)-1H-pyrrolo[2,3-b]pyridin-2-yl)-1H-pyrazolo[3,4-b]pyridin-5-yl)pyridin-3-amine], in assay [1], the inhibition at 10 µM was found to be 30.1% and the EC50 was greater than 10 µM. Moreover, in the assay on SW480 colon cancer cells, the EC50 is greater than 10 µM and the inhibition at 10 µM is 14.3%.
Take `O=C(Nc1cncc(-c2cnc3[nH]nc(-c4cc5c(-c6cccnc6)ccnc5[nH]4)c3c2)c1)C1CC1` [Compound 104, N-(5-(3-(4-(Pyridin-3-yl)-1H-pyrrolo[2,3-b]pyridin-2-yl)-1H-pyrazolo[3,4-b]pyridin-5-yl)pyridin-3-yl)cyclopropanecarboxamide]: the inhibition at 10 µM in assay [1] stood at 0%; in the assay on SW480 colon cancer cells, 10.4%. In addition, the EC50 (in assay [1]; in the assay on SW480 colon cancer cells) was greater than 10 µM each time.
For the molecule `Cc1ccncc1-c1cnc2[nH]nc(-c3cc4c(-c5ccncc5)ccnc4[nH]3)c2c1` [Compound 117, 5-(4-Methylpyridin-3-yl)-3-(4-(pyridin-4-yl)-1H-pyrrolo[2,3-b]pyridin-2-yl)-1H-pyrazolo[3,4-b]pyridine], in assay [1], the inhibition at 10 µM stood at 13% and the EC50 is greater than 10 µM. Moreover, in the assay on SW480 colon cancer cells, the EC50 is greater than 10 µM and the inhibition at 10 µM came out at 10.1%.
In the case of `O=C(Nc1cncc(-c2cnc3[nH]nc(-c4cc5c(-c6ccncc6)ccnc5[nH]4)c3c2)c1)c1ccccc1` [Compound 123, N-(5-(3-(4-(Pyridin-4-yl)-1H-pyrrolo[2,3-b]pyridin-2-yl)-1H-pyrazolo[3,4-b]pyridin-5-yl)pyridin-3-yl)benzamide], the inhibition at 10 µM in assay [1] is 5.2%; in the assay on SW480 colon cancer cells, 12%. For the same molecule, the EC50 (in assay [1]; in the assay on SW480 colon cancer cells) was greater than 10 µM in each case.
As for `c1cc(-c2cnc3[nH]nc(-c4cc5c(-c6ccncc6)ccnc5[nH]4)c3c2)ccn1` [Compound 130, 5-(Pyridin-4-yl)-3-(4-(pyridin-4-yl)-1H-pyrrolo[2,3-b]pyridin-2-yl)-1H-pyrazolo[3,4-b]pyridine], in assay [1], the inhibition at 10 µM stood at 6.3% and the EC50 was greater than 10 µM. In addition, in the assay with SW480 colon cancer cells, the EC50 was greater than 10 µM and the inhibition at 10 µM was 5.7%.
Take `O=C(Nc1cncc(-c2cnc3[nH]nc(-c4cc5c(-c6ccncc6)ccnc5[nH]4)c3c2)c1)C1CCCCC1` [Compound 135, N-(5-(3-(4-(Pyridin-4-yl)-1H-pyrrolo[2,3-b]pyridin-2-yl)-1H-pyrazolo[3,4-b]pyridin-5-yl)pyridin-3-yl)cyclohexanecarboxamide]: in assay [1], the inhibition at 10 µM was found to be 16.4% and the EC50 is greater than 10 µM. Also, in the assay on SW480 colon cancer cells, the EC50 is greater than 10 µM and the inhibition at 10 µM came to 13.9%.
For `c1ccc(-c2cnc3[nH]nc(-c4cc5c(-c6ccncc6)ccnc5[nH]4)c3c2)nc1` [Compound 140, 5-(Pyridin-2-yl)-3-(4-(pyridin-4-yl)-1H-pyrrolo[2,3-b]pyridin-2-yl)-1H-pyrazolo[3,4-b]pyridine], in assay [1], the inhibition at 10 µM came to 12.3% and the EC50 is greater than 10 µM. For the same molecule, in the assay with SW480 colon cancer cells, the concentration giving a half-maximal response (EC50) is greater than 10 µM and the inhibition at 10 µM amounted to 20.2%.
With `CC(C)(C)C(=O)Nc1cncc(-c2cnc3[nH]nc(-c4cc5c(N6CCCCC6)ccnc5[nH]4)c3c2)c1` [Compound 176, N-(5-(3-(4-(Piperidin-1-yl)-1H-pyrrolo[2,3-b]pyridin-2-yl)-1H-pyrazolo[3,4-b]pyridin-5-yl)pyridin-3-yl)pivalamide], in assay [1], the inhibition at 10 µM is 5% and the EC50 is greater than 10 µM. Besides, in the assay on SW480 colon cancer cells, the EC50 is greater than 10 µM and the inhibition at 10 µM was 2.9%.
Regarding `c1cc(N2CCCCC2)c2cc(-c3n[nH]c4ncc(-c5cncc(CN6CCCC6)c5)cc34)[nH]c2n1` [Compound 182, 3-(4-(Piperidin-1-yl)-1H-pyrrolo[2,3-b]pyridin-2-yl)-5-(5-(pyrrolidin-1-ylmethyl)pyridin-3-yl)-1H-pyrazolo[3,4-b]pyridine], the figures for the inhibition at 10 µM (in assay [1]; in the assay on SW480 colon cancer cells) were 7.1% and 26%, respectively. Moreover, the EC50 (in assay [1]; with SW480 colon cancer cells) was greater than 10 µM each time.
Regarding `CCCC(=O)Nc1cncc(-c2cnc3[nH]nc(-c4cc5c(N6CCCCC6)ccnc5[nH]4)c3c2)c1` [Compound 185, N-(5-(3-(4-(Piperidin-1-yl)-1H-pyrrolo[2,3-b]pyridin-2-yl)-1H-pyrazolo[3,4-b]pyridin-5-yl)pyridin-3-yl)butyramide], in assay [1], the inhibition at 10 µM was 10.9% and the concentration giving a half-maximal response (EC50) was greater than 10 µM. In the assay on SW480 colon cancer cells, the EC50 was greater than 10 µM and the inhibition at 10 µM is 4.9%.
On to `c1ncc(-c2cnc3[nH]nc(-c4cc5c(N6CCCCC6)ccnc5[nH]4)c3c2)cn1` [Compound 195, 3-(4-(Piperidin-1-yl)-1H-pyrrolo[2,3-b]pyridin-2-yl)-5-(pyrimidin-5-yl)-1H-pyrazolo[3,4-b]pyridine], for which, in assay [1], the inhibition at 10 µM was 6.9% and the EC50 is greater than 10 µM. Also, in the assay on SW480 colon cancer cells, the EC50 is greater than 10 µM and the inhibition at 10 µM amounted to 13.9%.
As to `CN1CCN(c2ccnc3[nH]c(-c4n[nH]c5ncc(-c6cncc(NC(=O)C7CCCCC7)c6)cc45)cc23)CC1` [Compound 247, N-(5-(3-(4-(4-Methylpiperazin-1-yl)-1H-pyrrolo[2,3-b]pyridin-2-yl)-1H-pyrazolo[3,4-b]pyridin-5-yl)pyridin-3-yl)cyclohexanecarboxamide], in assay [1], the inhibition at 10 µM turned out to be 6.4% and the EC50 is greater than 10 µM. Besides, in the assay on SW480 colon cancer cells, the EC50 was greater than 10 µM and the inhibition at 10 µM was 11.7%.
Regarding `c1cnc2[nH]c(-c3n[nH]c4ncc(-c5ccncc5)cc34)cc2c1` [Compound 270, 5-(Pyridin-4-yl)-3-(1H-pyrrolo[2,3-b]pyridin-2-yl)-1H-pyrazolo[3,4-b]pyridine], in assay [1], the inhibition at 10 µM amounted to 0% and the EC50 was greater than 10 µM. Besides, in the assay on SW480 colon cancer cells, the EC50 is greater than 10 µM and the inhibition at 10 µM stood at 23.9%.
Consider `O=C(Nc1cncc(-c2cnc3[nH]nc(-c4cc5cccnc5[nH]4)c3c2)c1)C1CCCC1` [Compound 274, N-(5-(3-(1H-Pyrrolo[2,3-b]pyridin-2-yl)-1H-pyrazolo[3,4-b]pyridin-5-yl)pyridin-3-yl)cyclopentanecarboxamide], for which, in assay [1], the inhibition at 10 µM was 40.3% and the EC50 was greater than 10 µM. Besides, in the assay with SW480 colon cancer cells, the EC50 was greater than 10 µM and the inhibition at 10 µM stood at 54.2%.
`CC(C)(C)CC(=O)Nc1cncc(-c2cnc3[nH]nc(-c4cc5c(-c6ccoc6)ccnc5[nH]4)c3c2)c1` [Compound 324, N-(5-(3-(4-(Furan-3-yl)-1H-pyrrolo[2,3-b]pyridin-2-yl)-1H-pyrazolo[3,4-b]pyridin-5-yl)pyridin-3-yl)-3,3-dimethylbutanamide]: the inhibition at 10 µM in assay [1] stood at 4.2%; with SW480 colon cancer cells, 5.3%. For the same molecule, the EC50 (in assay [1]; in the assay on SW480 colon cancer cells) was greater than 10 µM throughout.
In the case of `CN(C)c1cncc(-c2cnc3[nH]nc(-c4cc5c(-c6cccs6)ccnc5[nH]4)c3c2)c1` [Compound 343, N,N-Dimethyl-5-(3-(4-(thiophen-2-yl)-1H-pyrrolo[2,3-b]pyridin-2-yl)-1H-pyrazolo[3,4-b]pyridin-5-yl)pyridin-3-amine], in assay [1], the inhibition at 10 µM was determined as 18.3% and the EC50 was greater than 10 µM. For the same molecule, in the assay with SW480 colon cancer cells, the EC50 was greater than 10 µM and the inhibition at 10 µM was found to be 36.8%.
In assay [1], `O=C(Nc1cncc(-c2cnc3[nH]nc(-c4cc5c(-c6cccs6)ccnc5[nH]4)c3c2)c1)C1CC1` [Compound 356, N-(5-(3-(4-(Thiophen-2-yl)-1H-pyrrolo[2,3-b]pyridin-2-yl)-1H-pyrazolo[3,4-b]pyridin-5-yl)pyridin-3-yl)cyclopropanecarboxamide] came in with an EC50 of 6.37 µM. Also, in the assay on SW480 colon cancer cells, the EC50 is greater than 10 µM and the inhibition at 10 µM amounted to 14.5%.
